Converted amounts (≈) assume the structure as drawn. The source made the active and inactive calls. The calls are words filed in the database; no cut-off is given here.
Assays:
[1] = target: T1, UDP-N-acetylmuramoylalanine--D-glutamate ligase (Escherichia coli K-12, UniProt P14900); test: Binding affinity to 6x His-tagged and 15N/13C-labeled Escherichia coli MurD ligase measured at NMR signal 9 by 1H/13C-HSQC 2D NMR spectroscopy
T1 sequence (P14900 whole entry): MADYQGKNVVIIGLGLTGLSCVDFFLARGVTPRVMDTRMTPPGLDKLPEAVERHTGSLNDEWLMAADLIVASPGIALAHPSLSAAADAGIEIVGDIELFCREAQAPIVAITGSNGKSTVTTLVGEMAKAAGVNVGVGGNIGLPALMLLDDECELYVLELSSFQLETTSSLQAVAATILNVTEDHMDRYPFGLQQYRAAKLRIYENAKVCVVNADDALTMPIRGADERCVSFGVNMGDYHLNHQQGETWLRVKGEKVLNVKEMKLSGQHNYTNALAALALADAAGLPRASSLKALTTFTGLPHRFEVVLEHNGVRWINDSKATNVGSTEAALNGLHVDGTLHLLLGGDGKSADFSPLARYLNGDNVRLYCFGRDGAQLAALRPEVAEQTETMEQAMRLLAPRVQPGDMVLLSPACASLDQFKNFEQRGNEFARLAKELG

[2] = target: T1, UDP-N-acetylmuramoylalanine--D-glutamate ligase; test: Binding affinity to 6x His-tagged and 15N/13C-labeled Escherichia coli MurD ligase measured at NMR signal 56 by 1H/13C-HSQC 2D NMR spectroscopy
[3] = target: T1, UDP-N-acetylmuramoylalanine--D-glutamate ligase; test: Binding affinity to 6x His-tagged and 15N/13C-labeled Escherichia coli MurD ligase measured at NMR signal 13 by 1H/13C-HSQC 2D NMR spectroscopy
[4] = target: T1, UDP-N-acetylmuramoylalanine--D-glutamate ligase; test: Binding affinity to 6x His-tagged and 15N/13C-labeled Escherichia coli MurD ligase measured at NMR signal 123 by 1H/13C-HSQC 2D NMR spectroscopy
[5] = target: T1, UDP-N-acetylmuramoylalanine--D-glutamate ligase; test: Binding affinity to 6x His-tagged and 15N/13C-labeled Escherichia coli MurD ligase measured at NMR signal 4 by 1H/13C-HSQC 2D NMR spectroscopy
[6] = target: T1, UDP-N-acetylmuramoylalanine--D-glutamate ligase; test: Binding affinity to 6x His-tagged and 15N/13C-labeled Escherichia coli MurD ligase measured at NMR signal 43 by 1H/13C-HSQC 2D NMR spectroscopy
[7] = target: T1, UDP-N-acetylmuramoylalanine--D-glutamate ligase; test: Binding affinity to 6x His-tagged and 15N/13C-labeled Escherichia coli MurD ligase by 1H/13C-HSQC 2D NMR spectroscopy
[8] = tested on: Haemophilus influenzae; test: Antibacterial activity against Haemophilus influenzae Lek 93 by broth microdilution method; format: functional
[9] = tested on: Streptococcus pyogenes; test: Antibacterial activity against Streptococcus pyogenes ATCC 19615 by broth microdilution method; format: functional
[10] = target: T2, UDP-N-acetylmuramoylalanine--D-glutamate ligase (Escherichia coli K-12) (UniProt P14900); test: Binding affinity to Escherichia coli MurD ligase by saturation transfer difference NMR spectroscopy
T2 sequence (whole entry): T1 sequence (P14900 whole entry)

[11] = tested on: Staphylococcus aureus; test: Antibacterial activity against Staphylococcus aureus ATCC 25923 by broth microdilution method; format: functional
[12] = tested on: Streptococcus pneumoniae; test: Antibacterial activity against Streptococcus pneumoniae ATCC 49619 by broth microdilution method; format: functional
[13] = target: T1, UDP-N-acetylmuramoylalanine--D-glutamate ligase; test: Binding affinity to 6x His-tagged and 15N/13C-labeled Escherichia coli MurD ligase measured at NMR signal 71 by 1H/13C-HSQC 2D NMR spectroscopy
[14] = target: T1, UDP-N-acetylmuramoylalanine--D-glutamate ligase; test: Competitive inhibition of Escherichia coli MurD ligase activity using UDP-N-acetylmuramyl-L-alanine as a substrate
[15] = tested on: Haemophilus influenzae; test: Antibacterial activity against Haemophilus influenzae ATCC 49247 by broth microdilution method; format: functional
[16] = tested on: Escherichia coli; test: Antibacterial activity against Escherichia coli ATCC 35218 by broth microdilution method; format: functional
[17] = tested on: Escherichia coli; test: Antibacterial activity against Escherichia coli ATCC 25922 by broth microdilution method; format: functional
[18] = target: T2, UDP-N-acetylmuramoylalanine--D-glutamate ligase (Escherichia coli K-12); test: Binding affinity to Escherichia coli MurD ligase by transferred NOESY NMR spectroscopy
[19] = tested on: Enterococcus faecalis; test: Antibacterial activity against Enterococcus faecalis ATCC 29212 by broth microdilution method; format: functional

Compound | Kd [1] | Kd [2] | Kd [3] | Kd [4] | Kd [5] | Kd [6] | Kd [7] | MIC [8] | MIC [9] | Activity [10] | MIC [11] | MIC [12] | Kd [13] | Ki [14] | MIC [15] | MIC [16] | MIC [17] | Activity [18] | MIC [19]
N#Cc1ccc(COc2ccc3cc(S(=O)(=O)N[C@H](CCC(=O)O)C(=O)O)ccc3c2)c(F)c1 | 2.2 µM | 5.5 µM | 7 µM |  |  |  |  |  |  |  |  |  |  |  |  |  |  |  | 
CCCCOc1ccc2cc(S(=O)(=O)N[C@H](CCC(=O)O)C(=O)O)ccc2c1 |  |  |  | 120 µM | 210 µM |  |  |  |  |  |  |  |  |  |  |  |  |  | 
O=C1Nc2ccc([N+](=O)[O-])cc2/C1=C1/SC(=S)N(NC(=O)c2cccnc2)C1=O |  |  |  |  | 111 µM | 79 µM | 98 µM | > 128 µg/mL | > 128 µg/mL | Active | > 128 µg/mL | > 128 µg/mL | 106 µM | 115 µM | 128 µg/mL (≈ 299 µM) | > 128 µg/mL | > 128 µg/mL | Active | 128 µg/mL (≈ 299 µM)

Reference: ChEMBL document CHEMBL3286285, “A novel 2-oxoindolinylidene inhibitor of bacterial MurD ligase: Enzyme kinetics, protein-inhibitor binding by NMR and a molecular dynamics study” (Eur J Med Chem, 2014)
